From patent publication US10066004B2 (ARIZONA CANCER THERAPEUTICS, LLC, priority 2010, dated 2018) come the findings set out here.

Common to all, as to type: cell-based
In one assay the test system is CaMKII. The experiment in a line: CaMKII phosphorylation, immunoblot in MDA-MB-468 cells. Conditions: MDA-MB-468, EGF or ionomycin, 15 minutes. The method, then: (a) MDA-MB-468 cells were treated with either 20 μmol/l CP (A-D) or 20 μmol/l EJ1 (E-H) for 0 minutes (A, E), 15 minutes (B, F), 60 minutes (C, G), or 16 hours (D, H). […] (b) BxPC3 cells were serum starved overnight, then treated with 20 μmol/l EJ1 and 50 ng/ml Texas-Red-labeled EGF, and imaged for 30 minutes with an Olympus IX71 deconvolution microscope. Panels A-F are bright field images, D′-F′ are red channel images (Texas-Red-labeled EGF). […] (c) Diagram depicts Ca^2+/CaM-regulated signaling pathway, and inhibitors acting at different targets are indicated. (d) MDA-MB-468 cells were pretreated with 50 μmol/l W-13 (D-F), 10 μmol/l ML-7 (G-I), or 10 μmol/l Y-27632 (J-L) in complete medium at 37° C. for 30 minutes and then treated with vehicle, 20 μmol/l CP, or 20 μmol/l EJ1 in combination with W-13, ML-7, or Y-27632 in complete medium at 37° C. for 15 minutes. Images represent the bright field images. […] Error bars, mean±SD. (f) MDA-MB-468 cells were either in serum-free medium (SF) or stimulated with 100 ng/ml EGF (EGF) and then incubated with water (Vehicle), 20 μmol/l CP, 20 μmol/l EJ1, 2 μmol/l ionomycin, 50 μmol/l W-13, 100 μmol/l KN-93, or EJ1 in combination with ionomycin for 15 minutes. Lysates were immunoblotted with antibodies as indicated. […] Error bars, mean±SD. […]
A general note: In western blotting, separated proteins are transferred to a membrane and probed.

The test system of assay [1] is MDA-MB-468 cells. In words: MTT viability, EJ1 in combination with pathway inhibitors or ROS scavenger. Conditions: MDA-MB-468, 20 μmol/l EJ1 plus inhibitor. The protocol:
(a) MDA-MB-468 cells were treated with either 20 μmol/l CP (A-D) or 20 μmol/l EJ1 (E-H) for 0 minutes (A, E), 15 minutes (B, F), 60 minutes (C, G), or 16 hours (D, H). Arrows indicate membrane blebs and arrowheads indicate intracellular vacuoles. (b) BxPC3 cells were serum starved overnight, then treated with 20 μmol/l EJ1 and 50 ng/ml Texas-Red-labeled EGF, and imaged for 30 minutes with an Olympus IX71 deconvolution microscope. Panels A-F are bright field images, D′-F′ are red channel images (Texas-Red-labeled EGF). Arrowheads indicate locations of EGF accumulation on membrane protrusions. (c) Diagram depicts Ca^2+/CaM-regulated signaling pathway, and inhibitors acting at different targets are indicated. (d) MDA-MB-468 cells were pretreated with 50 μmol/l W-13 (D-F), 10 μmol/l ML-7 (G-I), or 10 μmol/l Y-27632 (J-L) in complete medium at 37° C. for 30 minutes and then treated with vehicle, 20 μmol/l CP, or 20 μmol/l EJ1 in combination with W-13, ML-7, or Y-27632 in complete medium at 37° C. for 15 minutes. Images represent the bright field images. Arrows indicate membrane blebbing. (e) MDA-MB-468 cells were untreated (UNTX) or treated with water (Vehicle), 20 μmol/l EJ1, 10 μmol/l Y-27632, or 10 μmol/l ML-7 alone or EJ1 in combination with Y-27632 or ML-7, and the viability was assessed by the MTT assay. **P<0.01 (Student's t-test). Error bars, mean±SD. (f) MDA-MB-468 cells were either in serum-free medium (SF) or stimulated with 100 ng/ml EGF (EGF) and then incubated with water (Vehicle), 20 μmol/l CP, 20 μmol/l EJ1, 2 μmol/l ionomycin, 50 μmol/l W-13, 100 μmol/l KN-93, or EJ1 in combination with ionomycin for 15 minutes. Lysates were immunoblotted with antibodies as indicated. (g) Stable, neomycin-selected NIH3T3 cell lines were created, expressing either Rac1 wild-type (Rac1-WT) or Rac1 constitutively active mutant (Rac1-Q61L). Cells were treated with water (Vehicle), 20 μmol/l CP, or 20 μmol/l EJ1, and the viability was assessed by MTT. ***P<0.001 (Student's t-test). Error bars, mean±SD.
(§1) (a) MDA-MB-468 cells were incubated in serum-free media with 200 nmol/l MitoTracker Red CMXRos and 5 μg/ml Hoechst 33342 nuclear stain, followed by either 20 μmol/l CP (A-B′) or 20 μmol/l EJ1 (C-D′), and imaged at 0 minutes (A, A′; and C, C′) or at 5 minutes (B, B′; and D, D′). (b) MDA-MB-468 cells were incubated with 1 μmol/l JC-1, followed by 20 μmol/l CP, 20 μmol/l EJ1, or 50 μmol/l CCCP. Results were calculated as the ratio of the 514/590 nm to 514/529 nm fluorescences and the ratio for CP-treated sample was set as 1. *P<0.05, Student's t-test. Error bars, mean±SD. […] Cells were then sorted by flow cytometer and analyzed by Cellquest Pro 4.0 software. The results are expressed as the percentage of DCFH fluorescence-positive cells. *P<0.05, Student's t-test. […]

In assay [2] the test system is MDA-MB-468 cells. The experiment in a line: Intracellular ROS by flow cytometry, DCFH-DA. Particulars: 20 μmol/l EJ1, 0.5 mmol/l NAC. The protocol: as §1, with “mean±SD. (c) T47D cells were treated with MitoTracker (shown in D-F and F′) and Hoechst 33342 as in (a) and incubated with 20 μmol/l FITC-labeled EJ1 (shown in A-C and C′).” for “mean±SD.”
Generation of intracellular ROS was evaluated by flow cytometry using the 2′,7′-dichlorofluorescein diacetate probe (Invitrogen). Fluorescent cells were analyzed by a FACScan flow cytometer (BD Biosciences) at the Flow Cytometry Shared Service in the Arizona Cancer Center, and the excitation/emission wavelengths were set at 488 and 525 nm, respectively.
In general terms: In flow cytometry, cells or beads pass a laser one at a time.

Consider `C[C@H](CCC(=O)O)C[C@H](C)C[C@H](C)C(=O)/C=C(\O)[C@H](C)C[C@H](C)C/C=C/[C@@H](C)[C@@H](O)[C@@H](C)[C@@H](O)C[C@@H]1CC[C@@](C)([C@H]2CC[C@@](C)([C@@H](C)O)O2)O1` [ionomycin], for which the CaMKII phosphorylation entry in the assay with CaMKII is “induced CaMKII phosphorylation”.

For `CC(=O)N[C@@H](CS)C(=O)O` [NAC, N-acetyl cysteine], in the assay with MDA-MB-468 cells [1], the “effect of co-treatment on EJ1-induced loss of cell viability (MTT)” value is “significantly rescue EJ1-induced cell death”. Besides, in the assay with MDA-MB-468 cells [2], the “intracellular ROS levels (DCF fluorescence)” value is given as “significantly reduced EJ1-induced ROS levels”.
